Reference: the NIST ThermoML archive (doi:10.1021/acs.jced.5b00242)

Columns and labels:
[1] = refractive index (Na D-line) (dimensionless); conditions: 101 kPa, Liquid, Standard Abbe refractometry
[2] = Liquid; for viscosity: 101 kPa, Stabinger Viscometer; for mass density: 101.33 kPa, Vibrating tube method

CCn1cc[n+](C)c1.NCCS(=O)(=O)[O-] [1-ethyl-3-methylimidazolium taurinate]
Conditions	mass density, [2] [kg/m3]	refractive index, [1]	viscosity, [2] [mPa·s]
293.15 K	1255	1.5135	760.89
298.15 K	1251.5	1.51217	514.67
303.15 K	1248.1	1.51084	359.36
308.15 K	1244.8	1.5095	258.04
313.15 K	1241.6	1.50816	190.44
318.15 K	1238.6	1.5068	143.31
323.15 K	1235.5	1.50543	110.35
328.15 K	1232.4	1.50403	86.59
333.15 K	1229.2	1.5027	69.36
338.15 K	1226.1	1.50136	56.05
343.15 K	1223	1.49997	46.1
348.15 K	1219.9	1.4986	38.4
353.15 K	1216.8	1.49726	32.53
